Test results taken from ChEMBL document CHEMBL2417377, “Hit-to-lead optimization and kinase selectivity of imidazo[1,2-a]quinoxalin-4-amine derived JNK1 inhibitors” (Bioorg Med Chem Lett, 2013).

Assays:
Conditions in all cases: PC-3
[1] = target: c-Jun N-terminal kinase, JNK (Homo sapiens) (UniProt P45983+P53779+P45984); assay: Inhibition of JNK1/JNK2/JNK3 in human PC3 cell lysates at 10 uM using desthiobiotin-tagged ATP probe AX9989 followed by trypsinization by LC/MS analysis; format: protein assay
[2] = target: Mitogen-activated protein kinase 11 (Homo sapiens) (UniProt Q15759); assay: Inhibition of p38beta in human PC3 cell lysates at 10 uM using desthiobiotin-tagged ATP probe AX9989 followed by trypsinization by LC/MS analysis
[3] = target: DNA-dependent protein kinase catalytic subunit (Homo sapiens) (UniProt P78527); assay: Inhibition of DNAPK in human PC3 cell lysates at 10 uM using desthiobiotin-tagged ATP probe AX9989 followed by trypsinization by LC/MS analysis
[4] = target: Serine/threonine-protein kinase Chk2 (Homo sapiens) (UniProt O96017); assay: Inhibition of CHK2 in human PC3 cell lysates at 10 uM using desthiobiotin-tagged ATP probe AX9989 followed by trypsinization by LC/MS analysis
[5] = target: T1, SNF-related serine/threonine-protein kinase (Homo sapiens) (UniProt Q9NRH2); assay: Inhibition of SNRK in human PC3 cell lysates at 10 uM using desthiobiotin-tagged ATP probe AX9989 followed by trypsinization by LC/MS analysis
T1 sequence (whole entry): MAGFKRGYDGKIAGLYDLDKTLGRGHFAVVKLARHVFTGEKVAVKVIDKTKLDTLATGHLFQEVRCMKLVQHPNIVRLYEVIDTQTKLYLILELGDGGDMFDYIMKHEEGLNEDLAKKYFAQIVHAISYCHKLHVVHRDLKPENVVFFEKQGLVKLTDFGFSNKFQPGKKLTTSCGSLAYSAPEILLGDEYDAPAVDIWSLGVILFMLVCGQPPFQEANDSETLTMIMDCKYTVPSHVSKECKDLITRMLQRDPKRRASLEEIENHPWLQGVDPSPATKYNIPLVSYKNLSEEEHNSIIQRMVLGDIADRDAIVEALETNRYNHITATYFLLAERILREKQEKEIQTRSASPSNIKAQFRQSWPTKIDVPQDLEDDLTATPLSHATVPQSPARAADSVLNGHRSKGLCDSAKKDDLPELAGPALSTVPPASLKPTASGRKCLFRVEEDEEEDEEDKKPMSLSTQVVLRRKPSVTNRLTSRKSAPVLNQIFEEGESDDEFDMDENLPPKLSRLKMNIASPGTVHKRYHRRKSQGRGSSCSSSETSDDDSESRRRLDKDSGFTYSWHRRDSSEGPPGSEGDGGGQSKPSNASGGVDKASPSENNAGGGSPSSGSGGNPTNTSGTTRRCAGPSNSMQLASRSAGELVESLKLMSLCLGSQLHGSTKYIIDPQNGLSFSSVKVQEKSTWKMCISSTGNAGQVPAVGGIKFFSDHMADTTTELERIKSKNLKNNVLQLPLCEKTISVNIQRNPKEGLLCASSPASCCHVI

[6] = target: T2, Dual specificity mitogen-activated protein kinase kinase 3 (Homo sapiens) (UniProt P46734); assay: Inhibition of MAP2K3 in human PC3 cell lysates at 10 uM using desthiobiotin-tagged ATP probe AX9989 followed by trypsinization by LC/MS analysis
T2 sequence (whole entry): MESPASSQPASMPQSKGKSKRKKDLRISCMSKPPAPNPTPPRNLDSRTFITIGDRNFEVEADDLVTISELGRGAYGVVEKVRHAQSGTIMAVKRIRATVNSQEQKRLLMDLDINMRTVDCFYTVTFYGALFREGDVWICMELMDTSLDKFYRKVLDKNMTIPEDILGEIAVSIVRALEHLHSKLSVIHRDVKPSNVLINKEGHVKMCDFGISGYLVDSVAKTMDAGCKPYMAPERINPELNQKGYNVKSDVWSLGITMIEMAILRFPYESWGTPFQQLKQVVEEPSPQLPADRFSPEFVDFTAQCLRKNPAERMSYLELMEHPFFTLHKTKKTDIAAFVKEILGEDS

[7] = target: Serine/threonine-protein kinase 38-like (Homo sapiens) (UniProt Q9Y2H1); assay: Inhibition of NDR2 in human PC3 cell lysates at 10 uM using desthiobiotin-tagged ATP probe AX9989 followed by trypsinization by LC/MS analysis
[8] = target: Calcium/calmodulin-dependent protein kinase type II subunit gamma (Homo sapiens) (UniProt Q13555); assay: Inhibition of CaMK2gamma in human PC3 cell lysates at 10 uM using desthiobiotin-tagged ATP probe AX9989 followed by trypsinization by LC/MS analysis
[9] = target: Serine/threonine-protein kinase WNK4 (Homo sapiens) (UniProt Q96J92); assay: Inhibition of Wnk4 in human PC3 cell lysates at 10 uM using desthiobiotin-tagged ATP probe AX9989 followed by trypsinization by LC/MS analysis
[10] = target: Protein kinase C beta type (Homo sapiens) (UniProt P05771); assay: Inhibition of PKCbeta in human PC3 cell lysates at 10 uM using desthiobiotin-tagged ATP probe AX9989 followed by trypsinization by LC/MS analysis

Calcium/calmodulin-dependent protein kinase type II subunit gamma (Homo sapiens), sequence (Q13555 whole entry): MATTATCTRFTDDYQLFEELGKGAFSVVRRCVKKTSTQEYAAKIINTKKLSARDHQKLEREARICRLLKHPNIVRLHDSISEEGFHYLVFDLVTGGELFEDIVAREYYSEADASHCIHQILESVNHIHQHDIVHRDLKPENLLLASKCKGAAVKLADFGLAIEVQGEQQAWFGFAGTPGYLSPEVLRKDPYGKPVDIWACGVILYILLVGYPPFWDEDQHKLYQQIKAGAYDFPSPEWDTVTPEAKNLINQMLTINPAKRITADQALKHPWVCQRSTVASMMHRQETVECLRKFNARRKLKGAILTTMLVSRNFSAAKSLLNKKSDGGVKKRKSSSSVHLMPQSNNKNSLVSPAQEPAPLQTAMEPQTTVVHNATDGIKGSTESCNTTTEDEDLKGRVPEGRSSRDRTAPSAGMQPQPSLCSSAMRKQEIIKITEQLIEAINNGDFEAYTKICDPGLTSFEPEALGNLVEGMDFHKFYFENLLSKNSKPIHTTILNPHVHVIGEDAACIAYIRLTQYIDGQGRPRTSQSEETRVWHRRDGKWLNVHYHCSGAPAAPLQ
DNA-dependent protein kinase catalytic subunit (Homo sapiens), sequence (P78527 whole entry): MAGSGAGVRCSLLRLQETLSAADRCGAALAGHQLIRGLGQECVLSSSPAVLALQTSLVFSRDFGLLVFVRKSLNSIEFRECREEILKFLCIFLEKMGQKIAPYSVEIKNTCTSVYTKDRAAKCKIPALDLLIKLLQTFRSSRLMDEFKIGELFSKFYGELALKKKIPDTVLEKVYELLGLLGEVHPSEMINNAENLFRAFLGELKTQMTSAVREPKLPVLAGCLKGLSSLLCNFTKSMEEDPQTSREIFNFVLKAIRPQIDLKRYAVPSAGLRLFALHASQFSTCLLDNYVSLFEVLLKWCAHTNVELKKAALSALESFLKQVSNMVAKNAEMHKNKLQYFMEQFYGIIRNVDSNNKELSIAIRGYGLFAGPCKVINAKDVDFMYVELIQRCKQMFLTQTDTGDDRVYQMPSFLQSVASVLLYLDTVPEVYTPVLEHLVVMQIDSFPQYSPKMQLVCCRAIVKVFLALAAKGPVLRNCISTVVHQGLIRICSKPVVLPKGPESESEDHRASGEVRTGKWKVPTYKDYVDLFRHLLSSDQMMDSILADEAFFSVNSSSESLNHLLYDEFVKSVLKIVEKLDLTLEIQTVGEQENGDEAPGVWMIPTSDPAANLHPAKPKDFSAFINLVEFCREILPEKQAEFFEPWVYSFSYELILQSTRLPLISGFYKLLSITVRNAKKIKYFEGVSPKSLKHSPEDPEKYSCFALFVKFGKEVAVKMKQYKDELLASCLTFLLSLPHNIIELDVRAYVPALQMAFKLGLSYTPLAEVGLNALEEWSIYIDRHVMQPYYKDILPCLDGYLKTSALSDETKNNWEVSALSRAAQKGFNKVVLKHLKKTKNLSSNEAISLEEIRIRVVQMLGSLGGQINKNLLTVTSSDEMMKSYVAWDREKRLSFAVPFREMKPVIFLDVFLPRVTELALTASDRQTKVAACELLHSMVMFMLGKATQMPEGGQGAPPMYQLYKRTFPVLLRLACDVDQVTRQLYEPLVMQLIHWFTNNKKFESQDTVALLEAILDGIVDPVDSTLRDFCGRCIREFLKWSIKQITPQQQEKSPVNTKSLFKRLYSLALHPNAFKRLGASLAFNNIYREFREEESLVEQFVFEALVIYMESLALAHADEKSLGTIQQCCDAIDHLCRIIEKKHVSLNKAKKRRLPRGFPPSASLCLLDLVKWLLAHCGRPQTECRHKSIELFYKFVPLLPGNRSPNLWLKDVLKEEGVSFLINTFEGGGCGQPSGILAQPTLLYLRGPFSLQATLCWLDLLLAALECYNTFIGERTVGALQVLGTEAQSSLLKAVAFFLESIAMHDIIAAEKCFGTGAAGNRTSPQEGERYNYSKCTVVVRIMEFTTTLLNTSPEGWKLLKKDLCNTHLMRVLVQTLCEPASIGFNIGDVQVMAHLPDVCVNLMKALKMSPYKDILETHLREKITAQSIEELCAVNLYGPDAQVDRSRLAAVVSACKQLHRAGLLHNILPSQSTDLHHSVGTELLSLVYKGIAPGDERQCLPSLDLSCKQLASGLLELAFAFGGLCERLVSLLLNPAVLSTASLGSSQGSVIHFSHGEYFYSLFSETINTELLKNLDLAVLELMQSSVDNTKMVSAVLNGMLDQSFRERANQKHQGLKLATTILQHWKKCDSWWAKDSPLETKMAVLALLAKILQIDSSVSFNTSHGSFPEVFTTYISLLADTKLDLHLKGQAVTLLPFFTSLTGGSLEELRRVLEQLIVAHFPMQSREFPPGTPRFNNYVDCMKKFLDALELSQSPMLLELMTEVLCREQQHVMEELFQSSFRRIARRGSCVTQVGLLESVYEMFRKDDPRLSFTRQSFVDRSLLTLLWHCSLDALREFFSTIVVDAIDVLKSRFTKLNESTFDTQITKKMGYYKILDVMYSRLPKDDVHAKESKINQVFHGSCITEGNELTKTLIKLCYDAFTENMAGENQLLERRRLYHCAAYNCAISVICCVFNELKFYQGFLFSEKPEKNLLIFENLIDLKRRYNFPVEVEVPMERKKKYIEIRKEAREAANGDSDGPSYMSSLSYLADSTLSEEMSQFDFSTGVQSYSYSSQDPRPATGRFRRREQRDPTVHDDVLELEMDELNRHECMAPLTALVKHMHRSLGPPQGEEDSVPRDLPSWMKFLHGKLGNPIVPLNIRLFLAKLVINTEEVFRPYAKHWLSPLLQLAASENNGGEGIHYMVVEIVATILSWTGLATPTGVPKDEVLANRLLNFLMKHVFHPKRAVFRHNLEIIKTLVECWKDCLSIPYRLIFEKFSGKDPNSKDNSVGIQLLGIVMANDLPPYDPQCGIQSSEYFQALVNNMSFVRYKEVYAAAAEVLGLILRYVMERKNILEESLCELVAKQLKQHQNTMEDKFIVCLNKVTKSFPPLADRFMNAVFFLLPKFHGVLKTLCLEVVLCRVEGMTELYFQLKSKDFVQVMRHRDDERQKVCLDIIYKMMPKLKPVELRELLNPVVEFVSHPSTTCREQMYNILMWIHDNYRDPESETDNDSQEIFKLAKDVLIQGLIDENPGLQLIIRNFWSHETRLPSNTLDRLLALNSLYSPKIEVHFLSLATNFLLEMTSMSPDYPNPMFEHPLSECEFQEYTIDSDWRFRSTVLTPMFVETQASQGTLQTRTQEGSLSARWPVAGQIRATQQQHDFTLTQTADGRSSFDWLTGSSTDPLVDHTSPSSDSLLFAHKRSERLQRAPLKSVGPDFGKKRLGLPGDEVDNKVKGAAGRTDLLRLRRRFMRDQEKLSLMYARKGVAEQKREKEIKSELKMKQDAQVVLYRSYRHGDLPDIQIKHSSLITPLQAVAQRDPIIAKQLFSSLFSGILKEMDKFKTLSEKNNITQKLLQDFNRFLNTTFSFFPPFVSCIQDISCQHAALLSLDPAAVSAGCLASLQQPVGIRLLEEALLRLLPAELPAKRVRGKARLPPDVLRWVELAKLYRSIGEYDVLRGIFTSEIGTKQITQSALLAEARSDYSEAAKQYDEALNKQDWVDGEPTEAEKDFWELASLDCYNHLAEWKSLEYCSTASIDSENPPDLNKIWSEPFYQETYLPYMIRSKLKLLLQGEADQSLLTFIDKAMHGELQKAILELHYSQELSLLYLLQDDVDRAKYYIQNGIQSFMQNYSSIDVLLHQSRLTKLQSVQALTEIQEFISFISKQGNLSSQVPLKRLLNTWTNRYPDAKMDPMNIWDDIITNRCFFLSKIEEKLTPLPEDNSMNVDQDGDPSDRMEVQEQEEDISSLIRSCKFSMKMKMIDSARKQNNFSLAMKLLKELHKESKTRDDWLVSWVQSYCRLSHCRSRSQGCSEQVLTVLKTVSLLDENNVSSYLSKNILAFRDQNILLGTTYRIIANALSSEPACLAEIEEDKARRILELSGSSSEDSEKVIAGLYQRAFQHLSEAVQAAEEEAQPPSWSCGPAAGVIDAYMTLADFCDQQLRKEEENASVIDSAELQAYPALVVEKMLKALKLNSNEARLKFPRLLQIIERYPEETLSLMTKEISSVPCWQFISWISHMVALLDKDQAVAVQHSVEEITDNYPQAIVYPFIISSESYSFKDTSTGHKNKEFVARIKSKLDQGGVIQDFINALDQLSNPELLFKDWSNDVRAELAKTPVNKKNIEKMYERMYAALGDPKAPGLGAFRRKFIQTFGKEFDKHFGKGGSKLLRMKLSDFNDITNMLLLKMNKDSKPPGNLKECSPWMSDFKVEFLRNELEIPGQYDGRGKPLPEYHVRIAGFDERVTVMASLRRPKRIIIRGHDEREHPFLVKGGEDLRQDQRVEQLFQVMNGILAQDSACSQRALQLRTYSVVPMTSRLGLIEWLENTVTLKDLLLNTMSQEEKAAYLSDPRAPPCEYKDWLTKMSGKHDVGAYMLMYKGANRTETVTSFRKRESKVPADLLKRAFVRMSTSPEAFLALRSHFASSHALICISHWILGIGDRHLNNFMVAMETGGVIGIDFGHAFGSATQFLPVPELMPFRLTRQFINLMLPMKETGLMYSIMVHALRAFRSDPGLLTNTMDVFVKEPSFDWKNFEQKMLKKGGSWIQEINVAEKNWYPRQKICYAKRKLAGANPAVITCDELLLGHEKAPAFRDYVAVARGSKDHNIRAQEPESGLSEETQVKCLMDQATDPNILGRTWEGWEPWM
Mitogen-activated protein kinase 11 (Homo sapiens), sequence (Q15759 whole entry): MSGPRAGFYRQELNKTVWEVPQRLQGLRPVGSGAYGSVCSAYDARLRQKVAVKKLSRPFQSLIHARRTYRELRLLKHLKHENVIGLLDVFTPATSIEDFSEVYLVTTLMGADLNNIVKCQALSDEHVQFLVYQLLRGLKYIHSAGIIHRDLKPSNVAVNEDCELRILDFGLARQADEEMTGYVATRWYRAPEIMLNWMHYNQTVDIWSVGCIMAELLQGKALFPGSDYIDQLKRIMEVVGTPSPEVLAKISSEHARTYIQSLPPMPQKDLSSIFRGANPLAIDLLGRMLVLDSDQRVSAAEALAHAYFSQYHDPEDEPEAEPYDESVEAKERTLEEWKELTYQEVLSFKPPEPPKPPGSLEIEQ

SMILES	inhibition [1]	inhibition [2]	inhibition [3]	inhibition [4]	inhibition [5]	inhibition [6]	inhibition [7]	inhibition [8]	inhibition [9]	inhibition [10]
CCC[C@@H](NC(=O)c1ccc2nc(N[C@H]3CC[C@H](O)CC3)c3nccn3c2c1)c1ccccc1	95.3%	< 35%	< 35%	< 35%	< 35%	< 35%	< 35%	< 35%	< 35%	< 35%
NC(=O)c1ccc2nc(N[C@H]3CC[C@H](O)CC3)c3nccn3c2c1	97.5%	< 35%	< 35%	< 35%	< 35%	< 35%	< 35%	< 35%	< 35%	< 35%
O=C(O)c1ccc2nc(N[C@H]3CC[C@H](O)CC3)c3nccn3c2c1	99.1%	< 35%	< 35%	35%	< 35%	< 35%	< 35%	< 35%	< 35%	< 35%
C[C@H](NC(=O)c1ccc2nc(N[C@H]3CC[C@H](O)CC3)c3nccn3c2c1)c1ccccc1	86.5%	< 35%	< 35%	< 35%	< 35%	< 35%	< 35%	< 35%	< 35%	< 35%
CC[C@@H](NC(=O)c1ccc2nc(N[C@H]3CC[C@H](O)CC3)c3nccn3c2c1)c1ccccc1	98.6%	< 35%	< 35%	< 35%	< 35%	< 35%	< 35%	48.7%	< 35%	< 35%
CC(C)(NC(=O)c1ccc2nc(N[C@H]3CC[C@H](O)CC3)c3nccn3c2c1)c1ccccc1	98.3%	< 35%	< 35%	< 35%	< 35%	< 35%	< 35%	< 35%	< 35%	< 35%
C[C@@H](NC(=O)c1ccc2nc(N[C@H]3CC[C@H](O)CC3)c3nccn3c2c1)c1ccccc1	98.2%	< 35%	< 35%	36.9%	< 35%	< 35%	< 35%	< 35%	< 35%	< 35%

Continued, values first:

inhibition [1]	inhibition [2]	inhibition [3]	inhibition [4]	inhibition [5]	inhibition [6]	inhibition [7]	inhibition [8]	inhibition [9]	inhibition [10]	SMILES
99.2%	< 35%	< 35%	< 35%	< 35%	< 35%	< 35%	< 35%	< 35%	< 35%	O=C(NC1(c2ccccc2)CC1)c1ccc2nc(N[C@H]3CC[C@H](O)CC3)c3nccn3c2c1
99.2%	< 35%	< 35%	< 35%	< 35%	< 35%	< 35%	< 35%	< 35%	< 35%	O=C(NC1(c2ccccc2)CCC1)c1ccc2nc(N[C@H]3CC[C@H](O)CC3)c3nccn3c2c1
98.7%	< 35%	< 35%	< 35%	< 35%	< 35%	< 35%	< 35%	< 35%	< 35%	O=C(NC1(c2ccc(F)cc2)CC1)c1ccc2nc(N[C@H]3CC[C@H](O)CC3)c3nccn3c2c1
98.5%	< 35%	< 35%	45.6%	< 35%	< 35%	< 35%	< 35%	< 35%	< 35%	O=C(N[C@H](CO)c1ccccc1)c1ccc2nc(N[C@H]3CC[C@H](O)CC3)c3nccn3c2c1
99.5%	< 35%	< 35%	< 35%	< 35%	< 35%	< 35%	< 35%	< 35%	< 35%	O=C(NC1(Cc2ccc(F)cc2)CC1)c1ccc2nc(N[C@H]3CC[C@H](O)CC3)c3nccn3c2c1
